Results as given in US20230348369A1 (Cytokinetics, Inc., priority 2020, published 2023).

Tests used:
human NAMPT = human NAMPT (Homo sapiens, UniProt P43490); test: Human recombinant enzyme assay (NMN fluorescence biochemical assay, activation of NAMPT); settings: Table A, human recombinant NAMPT, NMN formation, 60 min; for EC50: read-out: EC50 Human
Method in brief: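 Activation of recombinant human NAMPT (6 nM) with 2.5 mM ATP, 20 μM PRPP and 150 μM nicotinamide in 50 mM HEPES pH 7.2, 1 mM DTT, 1 mM CHAPS, 50 mM NaCl, 100 mM MgCl2; 60 min, ambient temperature. NMN formed was derivatized with acetophenone/KOH/formic acid, fluorescence read at 355/460 nm after 40 min.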

endogenous NAMPT = target: T1, endogenous NAMPT (Homo sapiens, UniProt P43490); test: Cellular NAD+ modulation assay in neuroblastoma SH-SY5Y cells; type: cell-based; settings: Table B, SH-SY5Y cells, cellular NAD levels, doxorubicin, 40 hours; for EC50: read-out: EC50
T1 construct: stimulate the endogenous NAMPT in a native cellular environment; endogenous in cells; host or cells: SH-SY5Y neuroblastoma cells
Protocol: The compounds described herein were also assayed for their ability to stimulate the endogenous NAMPT in a native cellular environment in the cellular NAD+ modulation assay, which measures the ability of the compound to modulate cellular NAD levels. Increased levels of NAD are expected by compounds that permeate the cells and activate the catalytic activity of the endogenous NAMPT.
Neuroblastoma SH-SY5Y cells were grown in 1:1 mixture of Eagle's Minimum Essential Medium and F12 Medium, along with 10% fetal bovine serum, in a humidified incubator with an atmosphere of 95% air and 5% CO2 at 37° C. The assays were initiated by plating 20 μL of SH-SY5Y cells in culture medium with 0.1% fetal bovine serum, at a density of 5000 cells per well to a 384-well Corning™ BioCoat™ Poly-D-Lysine Multiwell Plates. The plates were incubated in the 37° C. incubators for a period of 5 hours. Compounds in DMSO were added to the plates in a volume of 120 nL using the Labcyte Echo Liquid Handlers. […] The plates are then incubated for 40 hours. 30 μL of a readout-solution containing 0.2 U/mL Diaphorase enzyme, 40 uM resazurin, 10 uM FMN, 0.8 U/mL Alcohol dehydrogenase, 3% ethanol, 0.4 mg/mL bovine serum albumin, 0.2% Triton X-100 in 100 mM Tris-HCl, 30 mM EDTA, pH 8.4. The plates were read for fluorescence (Excitation/Emission=540 nm/590 nm) using an EnVision plate reader after 60 mins of incubation at ambient temperature.

T1 sequence (P43490 whole entry): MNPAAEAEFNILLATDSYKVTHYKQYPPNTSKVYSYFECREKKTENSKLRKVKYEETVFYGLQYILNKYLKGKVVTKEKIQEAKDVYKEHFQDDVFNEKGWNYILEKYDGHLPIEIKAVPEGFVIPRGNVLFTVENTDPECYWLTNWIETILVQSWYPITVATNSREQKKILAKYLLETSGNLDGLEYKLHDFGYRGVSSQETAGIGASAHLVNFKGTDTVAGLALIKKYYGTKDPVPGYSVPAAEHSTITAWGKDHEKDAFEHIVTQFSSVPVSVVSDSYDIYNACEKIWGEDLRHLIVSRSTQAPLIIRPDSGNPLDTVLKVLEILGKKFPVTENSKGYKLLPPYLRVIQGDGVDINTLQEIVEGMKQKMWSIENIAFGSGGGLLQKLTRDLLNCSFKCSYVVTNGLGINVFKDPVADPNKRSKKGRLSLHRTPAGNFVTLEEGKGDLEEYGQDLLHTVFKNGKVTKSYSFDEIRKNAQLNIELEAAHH
Chain of human NAMPT (P43490 whole entry): as above

[2H]C([2H])(CCCC1CCN(C(=O)c2ccccc2)CC1)NC(=O)NCc1cnco1 [Compound 293, 1-(4-(1-benzoylpiperidin-4-yl)butyl-1,1-d2)-3-(oxazol-5-ylmethyl)urea] was tested, and the “AC1.4 Human” value (human NAMPT) was 0.1 µM, the EC50 (human NAMPT) was 1500 nM and the AC0.3 (endogenous NAMPT) was 0.3 µM. The EC50 (endogenous NAMPT) was 300 nM.
For COc1ccc(CNC(=O)NCCCCC2CCN(C(=O)c3ccccc3C)CC2)cc1 [Compound 322, 1-(4-methoxybenzyl)-3-(4-(1-(2-methylbenzoyl)piperidin-4-yl)butyl)urea], the “AC1.4 Human” value (human NAMPT) was 0.1 µM, the EC50 (human NAMPT) was 2300 nM and the AC0.3 (endogenous NAMPT) was 0.2 µM. For the same molecule, the EC50 (endogenous NAMPT) was 300 nM.
O=C(NCc1ccc(Cl)cc1)NC1CC2(CC(Cc3ccncc3)C2)C1 (centres unmarked) [Compound 329, 1-(4-chlorobenzyl)-3-(6-(pyridin-4-ylmethyl)spiro[3.3]heptan-2-yl)urea] was tested, and the “AC1.4 Human” value (human NAMPT) was 62.5 µM, the EC50 (human NAMPT) was over 62500 nM and the AC0.3 (endogenous NAMPT) was 0.1 µM. The EC50 (endogenous NAMPT) was 100 nM.
COc1ccc(CNC(=O)NC2CC3(CC(Cc4ccncc4)C3)C2)cc1 (centres unmarked) [Compound 330, 1-(4-methoxybenzyl)-3-(6-(pyridin-4-ylmethyl)spiro[3.3]heptan-2-yl)urea] was tested, and the “AC1.4 Human” value (human NAMPT) was 0.1 µM, the EC50 (human NAMPT) was 3900 nM and the AC0.3 (endogenous NAMPT) was 0.5 µM. The EC50 (endogenous NAMPT) was 8100 nM.
In the case of Cc1ncccc1CC1CC2(C1)CC(NC(=O)NCc1ccc(Cl)cc1)C2 (centres unmarked) [Compound 346, 1-(4-chlorobenzyl)-3-(6-((2-methylpyridin-3-yl)methyl)spiro[3.3]heptan-2-yl)urea], the “AC1.4 Human” value (human NAMPT) is reported as 62.5 µM, the EC50 (human NAMPT) is reported as over 62500 nM and the AC0.3 (endogenous NAMPT) is reported as 0.1 µM. For the same molecule, the EC50 (endogenous NAMPT) was 100 nM.
